{"source": "patent US12358892B2", "about": "“Metalloenzyme inhibitors for treating cancers, Alzheimer's disease, hemochromatosis, and other disorders” (Miralogx LLC, priority 2020, dated 2025)", "key": {"[1]": {"tested_on": "12 human primary cell-based systems", "test": "BioMAP Diversity PLUS panel, protein biomarker readouts and cytotoxicity", "excerpt": "This example describes testing the compound prepared in Example 1 in the BioMAP Diversity PLUS (Eurofins Discovery, Burlingame, California) panel of 12 human primary cell-based systems designed to model different aspects of the human body in an in vitro format. The 12 systems in the Diversity PLUS panel allow test agent characterization in an unbiased way across a broad set of systems modeling various human disease states. BioMAP systems are constructed with one or more primary cell types from healthy human donors, with stimuli (such as cytokines or growth factors) added to capture relevant signaling networks that naturally occur in human tissue or pathological conditions. Vascular biology is modeled in both a Th1 (3C system) and a Th2 (4H system) inflammatory environment, as well as in a Th1 inflammatory state specific to arterial smooth muscle cells (CASM3C system). Additional systems recapitulate aspects of the systemic immune response including monocyte-driven Th1 inflammation (LPS system) or T cell stimulation (SAg system), chronic Th1 inflammation driven by macrophage activation (lMphg system) and the T cell-dependent activation of B cells that occurs in germinal centers (BT system). The BE3C system (Th1) and the BF4T system (Th2) represent airway inflammation of the lung, while the MyoF system models myofibroblast-lung tissue remodeling. Lastly, skin biology is addressed in the KF3CT system modeling Th1 cutaneous inflammation and the HDF3CGF system modeling wound healing.\nThe X-axis lists the quantitative protein-based biomarker readouts measured in each system. The Y-axis represents a log-transformed ratio of the biomarker readouts for the drug-treated sample (n=1) over vehicle controls (n≥6). The grey region around the Y-axis represents the 95% significance envelope generated from historical vehicle controls. Biomarker activities are annotated when two or more consecutive concentrations change in the same direction relative to vehicle controls, are outside of the significance envelope, and have at least one concentration with an effect size >20% (|log 10 ratio|>0.1). Biomarker key activities are described as modulated if these activities increase in some systems, but decrease in others. Cytotoxicity is indicated on the profile plot by a thin black arrow above the X-axis, and antiproliferative effects are indicated by a thick grey arrow. Cytotoxicity and antiproliferative arrows only require one concentration to meet the indicated threshold for profile annotation. As summarized in Table 2 below, the compound was active with 35 annotated readouts. Specifically, the compound impacted inflammation-related activities (decreased Eotaxin 3, VCAM-1, MCP-1, SAA, sTNFα, MIP-1α; increased IL-1α, IL-6; modulated IL-8), immunomodulatory activities (decreased CD40, sIL-1β, sIgG, M-CSF, sIL-17A, sIL-6, sIL-17F, sIL-2), tissue remodeling activities (decreased PAI-1, uPAR, αSMA, Keratin 8/18; increased collagen I, MMP-1), and hemostasis-related activities (increased TF).\nBioMAP® panels consist of human primary cell-based systems designed to model different aspects of the human body in an in vitro format. BioMAP® systems are constructed with one or more primary cell types from healthy human donors, with stimuli (such as cytokines or growth factors) added to capture relevant signaling networks that naturally occur in human tissue or pathological conditions. Vascular biology is modeled in both a Th1 (3C system) and a Th2 (4H system) inflammatory environment, as well as in a Th1 inflammatory state specific to arterial smooth muscle cells (CASM3C system). Additional systems recapitulate aspects of the systemic immune response including monocyte-driven Th1 inflammation (LPS system) or T cell stimulation (SAg system), chronic Th1 inflammation driven by macrophage activation (Mphg system) and the T cell-dependent activation of B cells that occurs in germinal centers (BT system). […]"}, "[2]": {"tested_on": "B cells", "test": "BioMAP proliferation readout, B cells", "format": "cell-based, human", "conditions": "100 μM, 33 μM, 11 μM", "excerpt": "The X-axis lists the quantitative protein-based biomarker readouts measured in each system. The Y-axis represents a log-transformed ratio of the biomarker readouts for the drug-treated sample (n=1) over vehicle controls (n≥6). The grey region around the Y-axis represents the 95% significance envelope generated from historical vehicle controls. Biomarker activities are annotated when two or more consecutive concentrations change in the same direction relative to vehicle controls, are outside of the significance envelope, and have at least one concentration with an effect size >20% (|log 10 ratio|>0.1). Biomarker key activities are described as modulated if these activities increase in some systems, but decrease in others. […] As summarized in Table 2 below, the compound was active with 35 annotated readouts. […]\nHuman primary cells in BioMAP® systems are used at early passage (passage 4 or earlier) to minimize adaptation to cell culture conditions and preserve physiological signaling responses. […] Test agents prepared in either DMSO (small molecules; final concentration ≤0.1%) or PBS (biologics) are added at the indicated concentrations 1-hr before stimulation, and remain in culture for 24-hrs or as otherwise indicated (48-hrs, MyoF system; 72-hrs, BT system (soluble readouts); 168-hrs, BT system (secreted IgG)). […]"}, "[3]": {"conditions": "Example 3.2, hemostasis-related activities"}, "[4]": {"conditions": "Example 3.2, immunomodulatory activities"}, "[5]": {"conditions": "Example 3.2, inflammation-related activities"}, "[6]": {"conditions": "Example 3.2, tissue remodeling activities"}}, "data": [{"smiles": "C1=NC(c2cncc(C3CCC=N3)c2)CC1", "note": "(stereo not drawn) [3,5-bis(3,4-dihydro-2H-pyrrol-2-yl)pyridine]", "values": [{"measurement": "LDLR", "setting": "[1]; Example 3.2", "result": "decrease"}, {"measurement": "TF", "setting": "[1]; [3]", "result": "increased"}, {"measurement": "TM", "setting": "[1]; [3]", "result": "decreased"}, {"measurement": "CD38", "setting": "[1]; [4]", "result": "decreased"}, {"measurement": "CD40", "setting": "[1]; [4]", "result": "decreased"}, {"measurement": "HLA-DR", "setting": "[1]; [4]", "result": "decreased"}, {"measurement": "sIL-1β", "setting": "[1]; [4]", "result": "decreased"}, {"measurement": "sIL-2", "setting": "[1]; [4]", "result": "decreased"}, {"measurement": "sIL-6", "setting": "[1]; [4]", "result": "decreased"}, {"measurement": "sIL-17A", "setting": "[1]; [4]", "result": "decreased"}, {"measurement": "sIL-17F", "setting": "[1]; [4]", "result": "decreased"}, {"measurement": "sIgG", "setting": "[1]; [4]", "result": "decreased"}, {"measurement": "Eotaxin 3", "setting": "[1]; [5]", "result": "decreased"}, {"measurement": "IL-6", "setting": "[1]; [5]", "result": "decreased"}, {"measurement": "IL-8", "setting": "[1]; [5]", "result": "modulated"}, {"measurement": "MCP-1", "setting": "[1]; [5]", "result": "decreased"}, {"measurement": "MIG", "setting": "[1]; [5]", "result": "decreased"}, {"measurement": "P-selectin", "setting": "[1]; [5]", "result": "decreased"}, {"measurement": "VCAM-1", "setting": "[1]; [5]", "result": "decreased"}, {"measurement": "sPGE2", "setting": "[1]; [5]", "result": "increased"}, {"measurement": "sTNFα", "setting": "[1]; [5]", "result": "modulated"}, {"measurement": "Collagen IV", "setting": "[1]; [6]", "result": "decreased"}, {"measurement": "MMP9", "setting": "[1]; [6]", "result": "decreased"}, {"measurement": "MMP-1", "setting": "[1]; [6]", "result": "decreased"}, {"measurement": "PAI-1", "setting": "[1]; [6]", "result": "decreased"}, {"measurement": "TIMP-1", "setting": "[1]; [6]", "result": "decreased"}, {"measurement": "alphaSMA", "setting": "[1]; [6]", "result": "decreased"}, {"measurement": "uPAR", "setting": "[1]; [6]", "result": "decreased"}, {"measurement": "cytotoxicity", "setting": "[1]; at the concentrations tested in this study", "result": "not cytotoxic"}, {"measurement": "antiproliferative effect on B cells", "setting": "[2]", "result": "antiproliferative"}]}]}
